Data published in US9278940B2, “Cyclic amines as bromodomain inhibitors” (Zenith Epigenetics Corp., priority 2012, dated 2016).
Structures can show the parent of a compound that is named as a salt.

Tests used:
hIL-6 mRNA = experiment: Inhibition of hIL-6 mRNA transcription in LPS-stimulated U937 macrophages; type: cell-based, human; parameters: key: Active: Compounds with an IC50 value less than 30 μM are deemed to be active.; Not Active: Compounds with an IC50 value less than 30 μM are deemed to be active; details: U937 cells differentiated with PMA, 1 h pretreatment, LPS 3 h
Method: In this example, hIL-6 mRNA in tissue culture cells was quantitated to measure the transcriptional inhibition of hIL-6 when treated with a compound of the present disclosure.
A human leukemic monocyte lymphoma cell line (U937) was plated (3.2×10^4 cells per well) in a 96-well plate in […] RPMI-1640 containing 10% FBS and penicillin/streptomycin, and differentiated into macrophages for 3 days in 60 ng/mL PMA ([…]) at 37° C. in 5% CO2 prior to the addition of the compound of interest. The cells were pretreated for 1 h with the test compound prior to stimulation with 1 ug/mL lipopolysaccharide from Escherichia coli. The cells were incubated at 37-C for 3 h before the cells were harvested. At time of harvest, the spent media was removed from the cells and the cells were rinsed in 200 μL PBS. Cell lysis solution (70 μL) was added the cells in each well and incubated for 5-10 min at room temperature, to allow for complete cell lysis and detachment. mRNA was then prepared using the “mRNA Catcher PLUS plate” (Invitrogen), according to the protocol supplied. After the last wash, as much wash buffer as possible was aspirated without allowing the wells to dry. Elution buffer (E3, 70 μL) was then added to each well. mRNA was then eluted by incubating the mRNA Catcher PLUS plate with Elution Buffer for 5 min at 68° C. and then immediately placing the plate on ice.
The eluted mRNA isolated was then used in a one-step quantitative real-time PCR reaction, using components of the Ultra Sense Kit together with Applied Biosystems primer-probe mixes. Real-time PCR data was analyzed, normalizing the Ct values for hIL-6 to an internal control, prior to determining the fold induction of each unknown sample, relative to the control.

hApoA-1 mRNA = experiment: Up-regulation of hApoA-1 mRNA transcription in Huh7 cells; type: cell-based, human; parameters: key: Active: Compounds with an EC170 value less than 30 μM are deemed to be active.; Not Active: Compounds with an EC170 value less than 30 μM are deemed to be active; details: 48 hrs treatment, ApoA-I mRNA
Method: In this example, ApoA-I mRNA in tissue culture cells was quantitated to measure the transcriptional up-regulation of ApoA-I when treated with a compound of the present disclosure.
Huh7 cells ([…] per well) were plated in a 96-well plate using 100 μL DMEM per well, (Gibco DMEM supplemented with penicillin/streptomycin and 10% FBS), 24 h before the addition of the compound of interest. After 48 hrs treatment, the spent media was removed from the Huh-7 cells and placed on ice (for immediate use) or at −80° C. (for future use) with the “LDH cytotoxicity assay Kit II” from Abcam. The cells remaining in the plate were rinsed with 100 μL PBS.
Then 85 μL of cell lysis solution was added to each well and incubated for 5-10 minutes at room temperature, to allow for complete cell lysis and detachment. mRNA was then prepared using the “mRNA Catcher PLUS plate” from Life Technologies, according to the protocol supplied. After the last wash, as much wash buffer as possible was aspirated without allowing the wells to dry. Elution Buffer (E3, 80 μL) was then added to each well. mRNA was then eluted by incubating the mRNA Catcher PLUS plate with Elution Buffer for 5 minutes at 68° C., and then 1 minute at 4° C. Catcher plates with mRNA eluted were kept on ice for use or stored at −80° C.
The eluted mRNA isolated was then used in a one-step real-time PCR reaction, using components of the Ultra Sense Kit together with Life Technologies primer-probe mixes. Real-time PCR data was analyzed, using the Ct values, to determine the fold induction of each unknown sample, relative to the control (that is, relative to the control for each independent DMSO concentration).
Compounds with an EC170 value less than 30 μM are deemed to be active.

Brd4 bromodomain 1 = target: T1, Brd4 bromodomain 1 (Homo sapiens, UniProt O60885); experiment: Inhibition of tetra-acetylated histone H4 binding to BET bromodomain (TR-FRET); parameters: key: Active: Compounds with an IC50 value less than 30 μM were deemed to be active.; Not Active: Compounds with an IC50 value less than 30 μM were deemed to be active; details: Brd4 bromodomain 1, tetra-acetylated histone H4 peptide
T1 construct: made in house; host or cells: E. coli BL21(DE3)
Method: Proteins were cloned and overexpressed with a N-terminal 6×His tag, then purified by nickel affinity followed by size exclusion chromatography. Briefly, E. coli BL21(DE3) cells were transformed with a recombinant expression vector encoding N-terminally Nickel affinity tagged bromodomains from Brd2, Brd3, Brd4. Cell cultures were incubated at 37° C. with shaking to the appropriate density and induced overnight with IPTG. The supernatant of lysed cells was loaded onto Ni-IDA column for purification. Eluted protein is pooled, concentrated and further purified by size exclusion chromatography. Fractions representing monomeric protein were pooled, concentrated, aliquoted, and frozen at −80° C. for use in subsequent experiments.
Binding of tetra-acetylated histone H4 and BET bromodomains was confirmed by a Time Resolved Fluorescence Resonance Energy Transfer (TR-FRET) method. N-terminally His-tagged bromodomains (200 nM) and biotinylated tetra-acetylated histone H4 peptide (25-50 nM, Millipore) were incubated in the presence of Europium Cryptate-labeled streptavidin (Cisbio Cat. #610SAKLB) and XL665-labeled monoclonal anti-His antibody (Cisbio Cat. #61HISXLB) in a white 96 well microtiter plate (Greiner). For inhibition assays, serially diluted test compound was added to these reactions in a 0.2% final concentration of DMSO. Final buffer concentrations were 30 mM HEPES pH 7.4, 30 mM NaCl, 0.3 mM CHAPS, 20 mM phosphate pH 7.0, 320 mM KF, 0.08% BSA). After 2 hours incubation at room temperature, the fluorescence by FRET was measured at 665 and 620 nm by a SynergyH4 plate reader (Biotek). The binding inhibitory activity was shown by a decrease in 665 nm fluorescence relative to 620 nm. IC50 values were determined from a dose response curve.

Human AML MV-4-11 cells = experiment: Inhibition of cell proliferation in MV4-11 cells; type: cell-based; parameters: key: Active: Compounds with an IC50 value less than 30 μM are deemed to be active.; Not Active: Compounds with an IC50 value less than 30 μM are deemed to be active; details: 72 hours
Method: MV4-11 cells: 96-well plates were seeded with 5×10^4 cells per well of exponentially growing human AML MV-4-11 (CRL-9591) cells and immediately treated with two-fold dilutions of test compounds, ranging from 30 μM to 0.2 μM. Triplicate wells were used for each concentration, as well as a media only and three DMSO control wells. The cells and compounds were incubated at 37° C., 5% CO2 for 72 hours before adding 20 μL of the CellTiter Aqueous One Solution (Promega) to each well and incubating at 37° C., 5% CO2 for an additional 3-4 hours. The absorbance was taken at 490 nm in a spectrophotometer and the percentage of proliferation relative to DMSO-treated cells was calculated after correction from the blank well. IC50 were calculated using the GraphPad Prism software.

c-myc = experiment: Inhibition of c-myc expression (mRNA, real-time PCR) in MV4-11 cells; type: cell-based; parameters: key: Active: Compounds with an IC50 value less than 30 μM were deemed to be active.; Not Active: Compounds with an IC50 value less than 30 μM were deemed to be active; details: Human AML MV4-11 cells, 3 hours
Method: MV4-11 cells (2.5×10^4 cells) were plated in 96 well U-bottom plates with test compound or DMSO (0.1%), and incubated for 3 hours at 37° C. Cells were then harvested by centrifugation, lysed, and mRNA was isolated using the mRNA catcher plus kit (Invitrogen). Reverse transcription of the mRNA and duplex amplification of the c-myc and cyclophilin cDNAs was performed using the RNA Ultrasense kit (Invitrogen) and a ViiA7 real-time PCR machine (Applied Biosystems). IC50 values were determined from a dose response curve.

Row | IL-6 activity (IC50 < 30 μM) (hIL-6 mRNA) | FRET activity (IC50 < 30 μM) (Brd4 bromodomain 1) | cell proliferation activity (IC50 < 30 μM) (Human AML MV-4-11 cells) | c-myc activity (IC50 < 30 μM) (c-myc) | melting point | Compound | ApoA-1 activity (EC170 < 30 μM) (hApoA-1 mRNA)
1 | Active | Active | Active | Active |  | COc1cc(OC)c2c(=O)[nH]c(-c3cccc(N4CCC(N(C)C)CC4)n3)nc2c1 [Example 29, 2-(6-(4-(Dimethylamino)piperidin-1-yl)pyridin-2-yl)-5,7-dimethoxyquinazolin-4(3H)-one] | Active
2 | Not Active | Active |  |  | 225 °C (dec.) | COc1cc(OC)c2c(=O)[nH]c(-c3cccc(N4CCN(CC(=O)O)CC4)n3)nc2c1 [Example 10, 2-(4-(6-(5,7-Dimethoxy-4-oxo-3,4-dihydroquinazolin-2-yl)pyridin-2-yl)piperazin-1-yl)acetic acid] | 
3 | Not Active | Active | Active | Active |  | COc1cc(OC)c2c(=O)[nH]c(-c3ccc(OCCNC(C)C)c(N4CCN(C(C)C)CC4)n3)nc2c1 [Example 12, 2-(5-(2-(Isopropylamino)ethoxy)-6-(4-isopropylpiperazin-1-yl)pyridin-2-yl)-5,7-dimethoxyquinazolin-4(3H)-one bis(trifluoroacetate)] | Active
4 |  |  |  |  | 186 to 188 °C | COc1cc(OC)c2c(=O)[nH]c(-c3ccc(OCCNC(C)C)c(N4CCN(C(C)C)CC4)n3)nc2c1 (as salt: trifluoroacetate) [Example 12, 2-(5-(2-(Isopropylamino)ethoxy)-6-(4-isopropylpiperazin-1-yl)pyridin-2-yl)-5,7-dimethoxyquinazolin-4(3H)-one bis(trifluoroacetate)] | 

Further lines, the compound ahead of its results:

Row | Compound | IL-6 activity (IC50 < 30 μM) (hIL-6 mRNA) | FRET activity (IC50 < 30 μM) (Brd4 bromodomain 1) | cell proliferation activity (IC50 < 30 μM) (Human AML MV-4-11 cells) | c-myc activity (IC50 < 30 μM) (c-myc) | melting point | ApoA-1 activity (EC170 < 30 μM) (hApoA-1 mRNA)
5 | CCC(=O)N1CCN(c2cccc(-c3nc4cc(OC)cc(OC)c4c(=O)[nH]3)n2)CC1 [Example 19, 5,7-Dimethoxy-2-(6-(4-propionylpiperazin-1-yl)pyridin-2-yl)quinazolin-4(3H)-one dihydrochloride] | Not Active | Active | Not Active | Not Active |  | Active
6 | COc1cc(OC)c2c(=O)[nH]c(-c3cc(Cl)cc(N4CCNCC4)c3)nc2c1 [Example 31, 2-(3-Chloro-5-(piperazin-1-yl)phenyl)-5,7-dimethoxyquinazolin-4(3H)-one] | Active | Active | Active | Active |  | Active
7 | COc1cc(OC)c2c(=O)[nH]c(-c3ccc(OCCO)c(N4CCN(C(C)C)CC4)n3)nc2c1 (as salt: acetate) [Example 13, 2-(5-(2-Hydroxyethoxy)-6-(4-isopropylpiperazin-1-yl)pyridin-2-yl)-5,7-dimethoxyquinazolin-4(3H)-one acetate] |  |  |  |  | 138 to 139 °C | 
8 | COc1cc(OC)c2c(=O)[nH]c(-c3cccc(N4CCN(C)CC4)n3)nc2c1 [Example 15, 5,7-Dimethoxy-2-(6-(4-methylpiperazin-1-yl)pyridin-2-yl)quinazolin-4(3H)-one Hydrochloride] | Active | Active | Active | Active |  | Active
9 | COc1cc(OC)c2c(=O)[nH]c(-c3cccc(N4CCN(CCS(C)(=O)=O)CC4)n3)nc2c1 [Example 6, 5,7-Dimethoxy-2-(6-(4-(2-(methylsulfonyl)ethyl)piperazin-1-yl)pyridin-2-yl)quinazazolin-4(3H)-one] | Active | Active | Not Active | Not Active |  | Active
10 | COc1cc(OC)c2c(=O)[nH]c(-c3cc(Cl)cc(N4CCN(C(C)C)CC4)c3)nc2c1 [Example 32, 2-(3-Chloro-5-(4-isopropylpiperazin-1-yl)phenyl)-5,7-dimethoxyquinazolin-4(3H)-one] | Active | Active | Active | Active |  | Active
11 | COC(=O)CN1CCN(c2cccc(-c3nc4cc(OC)cc(OC)c4c(=O)[nH]3)n2)CC1 [Example 7, Methyl 2-(4-(6-(5,7-dimethoxy-4-oxo-3,4-dihydroquinazolin-2-yl)pyridin-2-yl)piperazin-1-yl)acetate] | Active | Active |  |  | 176 to 177 °C | 
